Assay results: patent publication US20230340498A1, “COMPOSITIONS AND METHODS FOR INDUCIBLE ALTERNATIVE SPLICING REGULATION OF GENE EXPRESSION” (The Children's Hospital of Philadelphia, priority 2020, published 2023)

Test system: AAV9.X^on.eGFP
Assay: In vivo induction of AAV9.X^on.eGFP in mice by oral LMI070
Description: Animals and histology. Animal protocols were approved by The Children’s Hospital of Philadelphia Institutional Animal Care and Use Committee. Five to six-week-old male C57Bl6/j mice were obtained from Jackson Laboratories (Bar Harbor, ME, USA). AAV vectors (AAV9. X^on.eGFP or AAVPHBeB.X^on.eGFP; generated at the CHOP Research Vector Core) were administrated by retroorbital injection at 7-8 weeks of age with a total of 3E11 vg in 150 µL infused. After 4 weeks, a single dose of LMI070 (5 or 50 mg/kg, MedChemExpress HY-19620) or vehicle solution was administrated by oral gavage. After 18-24 h, mice used for biochemical or molecular studies were anesthetized and perfused with 0.9% cold saline mixed with 2-ml RNAlater (Ambion) solution. Brains and liver samples were collected, flash frozen in liquid nitrogen, and stored at -80 C until use. For immunohistochemistry studies, mice were perfused with 15 mL ice-cold 0.1 M PBS followed by 15 mL 4% paraformaldehyde. For brain sections, eGFP visualization was done by IHC using rabbit anti-GFP antibody (Invitrogen, 1:200) followed by Alexa488-conjugated goat anti-rabbit (Invitrogen, 1:500) and Alexa488-conjugated chicken anti-goat (Invitrogen, 1:500). Slices were mounted on Superfrost plus slides and coverslips mounted using fluoro-gel mounting media. Sections were analyzed using a DM6000B Leica microscope equipped with a L5 ET filter cube (ex:em of 470±20:525±15 nm and dichroic 495 nm), a 20X HC APO PLAN (N.A. 0.70) lens connected to a Sola Light Engine LED light source (Lumencor). Images were collected with a Hammatsu Orca flash4.0 monochrome camera controlled by Leica LAS X (v.3.0.3) software. Brain images represent a 7.98 µm thick z-stack deconvoluted by 3 iterations of the Blind algorithm.
RNA extraction, RT-PCR, and Splicing assays. Total RNA was extracted using Trizol (Life Technologies) according to the manufacturer’s protocol, with the exception of 1 µL Glycoblue (Life Technologies) in addition to the aqueous phase on the isopropanol precipitation step and a single wash with cold 70% ethanol. To determine HTT expression levels after transfection, RNA samples were quantified by spectrophotometry and subsequently cDNAs generated from […] of total RNA with random hexamers (TaqMan RT reagents, Applied Biosystems). To determine human HTT expression levels in HEK293 cells, we used TaqMan probes for human HTT and glyceraldehyde 3-phosphate dehydrogenase (GAPDH) mRNAs obtained from Applied Biosystems. Relative HTT gene expression was determined using the ddCt method. To determine splicing of the SMN2-on and Xon switches, 2 µg of total RNA from HEK293 cells or tissue samples was treated with DNAseI Free kit (Thermofisher) followed by cDNA generation using the High capacity cDNA kit (Thermofisher). Splicing was determined by PCR using the Phusion High-Fidelity polymerase (Thermofisher) and PCR products separated on a 2.5% agarose gel pre-stained with EtBr and spliced-in and spliced-out band densitometry performed using with the ChemiDoc Imaging System (BioRad) and Image Lab analysis software. Splicing induction from mouse tissues was determined using two custom TaqMan assays designed to determine total or LMI070-spliced in mRNA transcripts. The percentage of induction was determined by dividing the average Ct novel exon and average Ct Total, relative to control animals injected with AAV virus plus vehicle.
Western Blots. HEK293 cells were rinsed and lysed with Passive Lysis Buffer (PBL, Promega), protein concentrations determined using the DC protein assay (Bio-Rad), and 10-20 µg of protein loaded on a 3%-8% NuPAGE Tris-Acetate Gel in tris-acetate buffer (Novex Life Technologies) or a 4-12% NuPAGE TrisBis NuPAGE gels in MES buffer (Novex Life Technologies) to determine HTT, SaCas9, or eGFP protein levels, respectively, with β-catenin as loading control. […]

[1] = spliced expression cassette relative to vehicle, LMI070 50 mg/kg

For `CC1(C)CC(Oc2ccc(-c3ccc(-c4cn[nH]c4)cc3O)nn2)CC(C)(C)N1` [LMI070, 5-(1H-Pyrazol-4-yl)-2-(6-((2,2,6,6-tetramethylpiperidin-4-yl)oxy)pyridazin-3-yl)phenol], the “eGFP expression in sections from liver” value (AAV9.X^on.eGFP 3E11 vg/mouse IV, single dose LMI070 5 or 50 mg/kg, 24 h later) was “notable eGFP expression”, the “induction in liver after repeat dosing” value (LMI070 50 mg/kg oral, second dose after one week washout, histology, western blot, splicing assay) was “evident in liver after the first and the second dose” and the “induction in skeletal muscle and heart” value (LMI070 50 mg/kg oral, histology and splicing assay) was “notable”. The “protein levels and novel exon splicing versus dose” value (liver, LMI070 5 or 50 mg/kg) was “directly correlated to the LMI070 dose”, the “relative level of induction in heart” value [1] was ~ 3000 fold and the “relative level of induction in liver” value [1] was ~1000 fold.
